{"source": "ChEMBL document CHEMBL6096706", "about": "“Discovery of WDR5-MLL1 and HDAC Dual-Target Inhibitors for the Treatment of Acute Myeloid Leukemia” (J Med Chem, 2025)", "key": {"[1]": {"test_system": "MV4-11", "experiment": "Antiproliferative activity against human MV4-11 cells assessed as growth inhibition at 1 uM measured after 72 hrs in presence of 0.5 uM of vorinostat by CellTiterGlo assay", "assay_type": "functional", "details": "read-out: GI"}, "[2]": {"test_system": "MV4-11", "experiment": "Antiproliferative activity against human MV4-11 cells assessed as growth inhibition at 1 uM measured after 72 hrs in presence of 0.2 uM of vorinostat by CellTiterGlo assay", "assay_type": "functional", "details": "read-out: GI"}, "[3]": {"test_system": "MV4-11", "experiment": "Antiproliferative activity against human MV4-11 cells assessed as growth inhibition at 1 uM measured after 72 hrs in presence of 1 uM of vorinostat by CellTiterGlo assay", "assay_type": "functional", "details": "read-out: GI"}, "[4]": {"test_system": "MV4-11", "experiment": "Antiproliferative activity against human MV4-11 cells assessed as growth inhibition at 0.4 uM measured after 72 hrs in presence of 0.05 uM of vorinostat by CellTiterGlo assay", "assay_type": "functional", "details": "read-out: GI"}, "[5]": {"test_system": "MV4-11", "experiment": "Induction of apoptosis in human MV4-11 cells assessed as late apoptotic cells at 200 nM incubated for 72 hrs by Annexin V/PI staining based flow cytometry analysis (reference value: 6.42%)", "assay_type": "functional"}, "[6]": {"test_system": "MV4-11", "experiment": "Induction of apoptosis in human MV4-11 cells assessed as late apoptotic cells at 600 nM incubated for 72 hrs in presence of vorinostat by Annexin V/PI staining based flow cytometry analysis (reference value: 6.42 %)", "assay_type": "functional"}, "[7]": {"test_system": "MV4-11", "experiment": "Antiproliferative activity against human MV4-11 cells assessed as growth inhibition at 0.4 uM measured after 72 hrs in presence of 0.5 uM of vorinostat by CellTiterGlo assay", "assay_type": "functional", "details": "read-out: GI"}, "[8]": {"test_system": "MV4-11", "experiment": "Induction of apoptosis in human MV4-11 cells assessed as late apoptotic cells at 200 nM incubated for 72 hrs in presence of vorinostat by Annexin V/PI staining based flow cytometry analysis (reference value: 6.42 %)", "assay_type": "functional"}, "[9]": {"test_system": "MV4-11", "experiment": "Antiproliferative activity against human MV4-11 cells assessed as growth inhibition at 0.05 uM measured after 72 hrs in presence of 0.5 uM of vorinostat by CellTiterGlo assay", "assay_type": "functional", "details": "read-out: GI"}, "[10]": {"test_system": "MV4-11", "experiment": "Antiproliferative activity against human MV4-11 cells assessed as growth inhibition at 0.4 uM measured after 72 hrs in presence of 0.1 uM of vorinostat by CellTiterGlo assay", "assay_type": "functional", "details": "read-out: GI"}, "[11]": {"test_system": "MV4-11", "experiment": "Induction of apoptosis in human MV4-11 cells assessed as viable cells at 400 nM incubated for 72 hrs in presence of vorinostat by Annexin V/PI staining based flow cytometry analysis (reference value: 96.68%)", "assay_type": "functional", "details": "read-out: Activity"}, "[12]": {"test_system": "MV4-11", "experiment": "Induction of apoptosis in human MV4-11 cells assessed as late apoptotic cells at 400 nM incubated for 72 hrs in presence of vorinostat by Annexin V/PI staining based flow cytometry analysis (reference value: 6.42 %)", "assay_type": "functional"}, "[13]": {"test_system": "MV4-11", "experiment": "Antiproliferative activity against human MV4-11 cells assessed as growth inhibition at 0.4 uM measured after 72 hrs in presence of 0.2 uM of vorinostat by CellTiterGlo assay", "assay_type": "functional", "details": "read-out: GI"}, "[14]": {"test_system": "MV4-11", "experiment": "Antiproliferative activity against human MV4-11 cells assessed as growth inhibition at 0.05 uM measured after 72 hrs in presence of 0.2 uM of vorinostat by CellTiterGlo assay", "assay_type": "functional", "details": "read-out: GI"}, "[15]": {"test_system": "MV4-11", "experiment": "Antiproliferative activity against human MV4-11 cells assessed as growth inhibition at 2 uM measured after 72 hrs in presence of 0.05 uM of vorinostat by CellTiterGlo assay", "assay_type": "functional", "details": "read-out: GI"}, "[16]": {"test_system": "MV4-11", "experiment": "Antiproliferative activity against human MV4-11 cells assessed as growth inhibition at 0.4 uM measured after 72 hrs in presence of 0.4 uM of vorinostat by CellTiterGlo assay", "assay_type": "functional", "details": "read-out: GI"}, "[17]": {"test_system": "MV4-11", "experiment": "Antiproliferative activity against human MV4-11 cells assessed as growth inhibition at 0.5 uM measured after 72 hrs by CellTiterGlo assay", "assay_type": "functional", "details": "read-out: GI"}, "[18]": {"test_system": "MV4-11", "experiment": "Antiproliferative activity against human MV4-11 cells assessed as growth inhibition at 0.1 uM measured after 72 hrs by CellTiterGlo assay", "assay_type": "functional", "details": "read-out: GI"}, "[19]": {"test_system": "MV4-11", "experiment": "Antiproliferative activity against human MV4-11 cells assessed as growth inhibition at 0.2 uM measured after 72 hrs in presence of 1 uM of vorinostat by CellTiterGlo assay", "assay_type": "functional", "details": "read-out: GI"}, "[20]": {"test_system": "MV4-11", "experiment": "Antiproliferative activity against human MV4-11 cells assessed as growth inhibition at 0.2 uM measured after 72 hrs in presence of 0.5 uM of vorinostat by CellTiterGlo assay", "assay_type": "functional", "details": "read-out: GI"}, "[21]": {"test_system": "MV4-11", "experiment": "Antiproliferative activity against human MV4-11 cells assessed as growth inhibition at 0.4 uM measured after 72 hrs in presence of 1 uM of vorinostat by CellTiterGlo assay", "assay_type": "functional", "details": "read-out: GI"}, "[22]": {"test_system": "MV4-11", "experiment": "Antiproliferative activity against human MV4-11 cells assessed as growth inhibition at 2 uM measured after 72 hrs in presence of 1 uM of vorinostat by CellTiterGlo assay", "assay_type": "functional", "details": "read-out: GI"}, "[23]": {"test_system": "MV4-11", "experiment": "Antiproliferative activity against human MV4-11 cells assessed as growth inhibition at 0.05 uM measured after 72 hrs in presence of 0.4 uM of vorinostat by CellTiterGlo assay", "assay_type": "functional", "details": "read-out: GI"}, "[24]": {"test_system": "MV4-11", "experiment": "Induction of apoptosis in human MV4-11 cells assessed as necrotic cells at 600 nM incubated for 72 hrs in presence of vorinostat by Annexin V/PI staining based flow cytometry analysis (reference value: 2.61%)", "assay_type": "functional"}, "[25]": {"test_system": "MV4-11", "experiment": "Induction of apoptosis in human MV4-11 cells assessed as necrotic cells at 200 nM incubated for 72 hrs in presence of vorinostat by Annexin V/PI staining based flow cytometry analysis (reference value: 2.61%)", "assay_type": "functional"}, "[26]": {"test_system": "MV4-11", "experiment": "Induction of apoptosis in human MV4-11 cells assessed as early apoptotic cells at 400 nM incubated for 72 hrs in presence of vorinostat by Annexin V/PI staining based flow cytometry analysis (reference value: 0.76 %)", "assay_type": "functional"}, "[27]": {"test_system": "MV4-11", "experiment": "Antiproliferative activity against human MV4-11 cells assessed as growth inhibition at 1 uM measured after 72 hrs in presence of 0.4 uM of vorinostat by CellTiterGlo assay", "assay_type": "functional", "details": "read-out: GI"}, "[28]": {"test_system": "MV4-11", "experiment": "cells", "assay_type": "functional, cell-based", "details": "Homo sapiens, MV4-11, 72 h", "description": "Antiproliferative activity against human MV4-11 cells assessed as inhibition of cell growth measured after 72 hrs by CellTiterGlo assay"}, "[29]": {"experiment": "Toxicity in mouse implanted in human MV4-11 cells assessed as lung damage at 10 to 30 mg/kg, ip administered daily for 17 days by H and E staining based analysis", "assay_type": "organism-based", "details": "in vivo, 408 h, dose 10-30 mg/kg, time 17 day"}, "[30]": {"molecular_target": "Histone deacetylase 4 (Homo sapiens, UniProt P56524)", "sequence (P56524 whole entry)": "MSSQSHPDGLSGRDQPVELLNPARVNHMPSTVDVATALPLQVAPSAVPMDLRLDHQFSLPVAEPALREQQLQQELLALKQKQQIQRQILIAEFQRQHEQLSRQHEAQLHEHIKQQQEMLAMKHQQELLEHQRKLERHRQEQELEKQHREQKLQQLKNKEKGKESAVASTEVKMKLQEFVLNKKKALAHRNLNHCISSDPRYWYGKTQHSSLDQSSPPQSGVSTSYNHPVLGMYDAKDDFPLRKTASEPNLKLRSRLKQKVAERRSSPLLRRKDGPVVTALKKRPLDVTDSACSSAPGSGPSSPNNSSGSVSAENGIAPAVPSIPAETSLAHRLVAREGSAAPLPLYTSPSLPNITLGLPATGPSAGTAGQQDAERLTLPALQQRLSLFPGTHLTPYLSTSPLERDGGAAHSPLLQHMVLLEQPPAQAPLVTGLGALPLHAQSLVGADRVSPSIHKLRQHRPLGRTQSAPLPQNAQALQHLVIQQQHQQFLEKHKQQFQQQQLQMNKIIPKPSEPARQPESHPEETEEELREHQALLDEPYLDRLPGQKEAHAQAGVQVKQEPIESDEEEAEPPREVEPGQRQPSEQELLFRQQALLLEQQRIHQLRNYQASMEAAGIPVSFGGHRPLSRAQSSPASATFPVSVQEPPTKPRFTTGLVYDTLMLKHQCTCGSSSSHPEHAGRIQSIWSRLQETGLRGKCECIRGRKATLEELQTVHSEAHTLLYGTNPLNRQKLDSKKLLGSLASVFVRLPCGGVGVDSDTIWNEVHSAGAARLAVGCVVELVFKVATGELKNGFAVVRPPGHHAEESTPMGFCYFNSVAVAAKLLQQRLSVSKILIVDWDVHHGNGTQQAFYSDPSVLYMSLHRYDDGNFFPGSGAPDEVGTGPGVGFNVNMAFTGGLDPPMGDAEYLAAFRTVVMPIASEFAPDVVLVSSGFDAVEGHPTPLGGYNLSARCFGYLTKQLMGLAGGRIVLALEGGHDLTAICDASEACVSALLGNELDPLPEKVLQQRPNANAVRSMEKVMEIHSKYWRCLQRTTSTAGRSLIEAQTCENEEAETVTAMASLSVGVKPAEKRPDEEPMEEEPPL", "experiment": "Inhibition of HDAC4 (unknown origin) by fluorescence based assay"}, "[31]": {"test_system": "MV4-11", "experiment": "Induction of apoptosis in human MV4-11 cells assessed as early apoptotic cells at 50 nmol/L incubated for 72 hrs by Annexin V/PI staining based flow cytometry analysis (reference value: 4.17 %)", "assay_type": "functional"}, "[32]": {"experiment": "Toxicity in mouse implanted in human MV4-11 cells assessed as animal death at 10 to 30 mg/kg, ip administered daily for 17 days", "assay_type": "organism-based", "details": "in vivo, 408 h, dose 10-30 mg/kg, time 17 day"}, "[33]": {"experiment": "Toxicity in mouse implanted in human MV4-11 cells assessed as spleen damage at 10 to 30 mg/kg, ip administered daily for 17 days by H and E staining based analysis", "assay_type": "organism-based", "details": "in vivo, 408 h, dose 10-30 mg/kg, time 17 day"}, "[34]": {"test_system": "MV4-11", "experiment": "Antitumor activity against human MV4-11 cells xenografted in mouse assessed as tumor growth inhibition at 30 mg/kg, ip administered daily for 17 days", "assay_type": "functional", "details": "MV4-11, 408 h, time 17 day, read-out: TGI"}, "[35]": {"molecular_target": "Histone deacetylase 2 (Homo sapiens, UniProt Q92769)", "sequence (Q92769 whole entry)": "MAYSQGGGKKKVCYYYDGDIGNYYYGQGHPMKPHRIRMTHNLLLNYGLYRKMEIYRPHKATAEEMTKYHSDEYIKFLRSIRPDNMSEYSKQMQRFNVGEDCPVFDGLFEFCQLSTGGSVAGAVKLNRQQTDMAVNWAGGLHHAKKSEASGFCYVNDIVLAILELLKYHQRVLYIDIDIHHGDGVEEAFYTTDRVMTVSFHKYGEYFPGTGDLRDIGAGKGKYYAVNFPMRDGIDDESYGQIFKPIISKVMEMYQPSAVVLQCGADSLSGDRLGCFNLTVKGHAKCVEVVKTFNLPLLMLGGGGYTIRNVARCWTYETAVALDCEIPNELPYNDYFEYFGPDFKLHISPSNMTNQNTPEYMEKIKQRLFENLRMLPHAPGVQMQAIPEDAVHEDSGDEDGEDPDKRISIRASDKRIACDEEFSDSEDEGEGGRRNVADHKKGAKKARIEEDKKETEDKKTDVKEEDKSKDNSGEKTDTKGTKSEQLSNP", "experiment": "Inhibition of HDAC2 (unknown origin) by fluorescence based assay"}}, "data": [{"molecule": "Cc1c(F)c(N)cc(C(=O)Nc2cc(-c3ccc(C(=O)N4CCOCC4)cc3)ccc2N2CCN(C)CC2)c1Cl", "values": [{"measurement": "inhibition of growth at 1 µM", "setting": "[1]", "result": 77.1, "unit": "%"}, {"measurement": "inhibition of growth at 1 µM", "setting": "[2]", "result": 61.6, "unit": "%"}, {"measurement": "inhibition of growth at 1 µM", "setting": "[3]", "result": 94.9, "unit": "%"}, {"measurement": "inhibition of growth at 0.4 µM", "setting": "[4]", "result": 40, "unit": "%"}, {"measurement": "Activity", "setting": "[5]", "result": 1.08, "unit": "%"}, {"measurement": "Activity", "setting": "[6]", "result": 19.27, "unit": "%"}, {"measurement": "inhibition of growth at 0.4 µM", "setting": "[7]", "result": 73.3, "unit": "%"}, {"measurement": "Activity", "setting": "[8]", "result": 7.65, "unit": "%"}, {"measurement": "inhibition of growth at 0.05 µM", "setting": "[9]", "result": 73.2, "unit": "%"}, {"measurement": "inhibition of growth at 0.4 µM", "setting": "[10]", "result": 55, "unit": "%"}, {"measurement": "viability at 0.4 µM", "setting": "[11]", "result": 26.1, "unit": "%"}, {"measurement": "Activity", "setting": "[12]", "result": 16.81, "unit": "%"}, {"measurement": "inhibition of growth at 0.4 µM", "setting": "[13]", "result": 59.3, "unit": "%"}, {"measurement": "inhibition of growth at 0.05 µM", "setting": "[14]", "result": 46.6, "unit": "%"}, {"measurement": "inhibition of growth at 2 µM", "setting": "[15]", "result": 55.9, "unit": "%"}, {"measurement": "inhibition of growth at 0.4 µM", "setting": "[16]", "result": 62.6, "unit": "%"}, {"measurement": "inhibition of growth at 0.5 µM", "setting": "[17]", "result": 27.5, "unit": "%"}, {"measurement": "inhibition of growth at 0.1 µM", "setting": "[18]", "result": 19.4, "unit": "%"}, {"measurement": "inhibition of growth at 0.2 µM", "setting": "[19]", "result": 88.2, "unit": "%"}, {"measurement": "inhibition of growth at 0.2 µM", "setting": "[20]", "result": 74.7, "unit": "%"}, {"measurement": "inhibition of growth at 0.4 µM", "setting": "[21]", "result": 90.8, "unit": "%"}, {"measurement": "inhibition of growth at 2 µM", "setting": "[22]", "result": 95.6, "unit": "%"}, {"measurement": "inhibition of growth at 0.05 µM", "setting": "[23]", "result": 45.1, "unit": "%"}, {"measurement": "Activity", "setting": "[24]", "result": 1.55, "unit": "%"}, {"measurement": "Activity", "setting": "[25]", "result": 1.48, "unit": "%"}, {"measurement": "Activity", "setting": "[26]", "result": 54.05, "unit": "%"}, {"measurement": "inhibition of growth at 1 µM", "setting": "[27]", "result": 68.7, "unit": "%"}]}, {"molecule": "Cc1c(F)c(N)cc(C(=O)Nc2cc(-c3ccc(C(=O)NCc4ccc(/C=C/C(=O)NO)cc4)cc3)ccc2N2CCN(C)CC2)c1Cl", "values": [{"measurement": "IC50", "setting": "[28]", "result": 65, "unit": "nM"}, {"measurement": "Activity", "setting": "[29]", "result": "Non-toxic"}, {"measurement": "IC50", "setting": "[30]", "result": 4690, "unit": "nM"}, {"measurement": "Activity", "setting": "[31]", "result": 11.03, "unit": "%"}, {"measurement": "Activity", "setting": "[32]", "result": "Non-toxic"}, {"measurement": "Activity", "setting": "[33]", "result": "Non-toxic"}, {"measurement": "inhibition in vivo at 30 mg/kg", "setting": "[34]", "result": 87.1, "unit": "%"}, {"measurement": "IC50", "setting": "[35]", "result": 696, "unit": "nM"}]}]}
